Reference: patent US4340672A, “Enzymatic synthesis of β-lactam antibacterials” (Shionogi & Co., Ltd., priority 1979, dated 1982)
In brackets after ≈: the same amount, converted by molar mass.

Assays:
[1] = test system: A. globiformis M-345-2 acylase; experiment: Selectivity of the acylases; details: ester (I) 45 mg, amine (II) 9 mg, 37° C., 3 hours 45 minutes; TLC and paper-disc assay with Bacillus subtilis PCI-219
[2] = test system: B. Circulans M-1123-5 acylase; experiment: Selectivity of the acylases; details: ester (I) 45 mg, amine (II) 9 mg, 37° C., 3 hours 45 minutes; TLC and paper-disc assay with Bacillus subtilis PCI-219
[3] = test system: A. fragerum M-2183-1 acylase; experiment: Selectivity of the acylases; details: ester (I) 45 mg, amine (II) 9 mg, 37° C., 3 hours 45 minutes; TLC and paper-disc assay with Bacillus subtilis PCI-219
[4] = test system: immobilized enzyme (acylase) of Bacillus circulans M-1123-5 on Sepharose 4B; experiment: Reactivity of TA esters by batch process; type: biochemical; details: 7-ACA to CET, 7-ACA 30 mg in 10 ml, pH 7.0, 37° C., 3 hours
Method: To a solution of 7-ACA (30 mg) and TA-esters (given amount) in M/10-phosphate buffer (pH 7.0) (10 ml) is added an immobilized enzyme (0.9 g) on Sepharose 4B, and the mixture is stirred at 37° C. for 3 hours. Concentration of CET in the reaction mixture is estimated by assaying antibacterial activity against Bacillus subtilis PCI-219 and conversion rate from 7-ACA to CET is calculated.

[5] = test system: immobilized enzyme (acylase) of Bacillus circulans M-1123-5; experiment: Reactivity of TA esters by column method; type: biochemical; details: 7-ACA 5 mg/ml, 37° C., 25 ml/hr
Method: Concentration of CET in the eluate is determined by assaying antibacterial activity against Bacillus subtilis PCI-219 to estimate the yield on Table 3 in the laminar flow state. (Immobilization of purified enzyme)

[6] = test system: acylase of Micrococcus roseus M-1054-1 (broth); experiment: Cephalothin production with broth of Micrococcus roseus; type: biochemical; details: 3.5 hours at 37° C.; paper disc assay against Bacillus subtilis PCI-219
Method: The broth is adjusted to pH 7.0. The broth (4.5 ml) is added to a solution of 7-ACA (3%) and (i) 2-thienylacetic acid glycerin ester, (ii) 2-thienylacetic acid tetraethyleneglycol ester or (iii) 2-thienylacetic acid octaethyleneglycol ester in 0.2 M-phosphate buffer (0.5 ml) to react for 3.5 hours at 37° C. The reaction mixture is centrifuged to remove cells and the supernatant is assayed by paper disc assay method against Bacillus subtilis PCI-219 to the following values of produced cephalothin.

Solubility in water = type: physicochemical; details: read-out: concentration that can dissolve in water
[7] = test system: acylase of Xanthomonas axonopodis M-621-1 on Sepharose 4B; experiment: Cephalexin production with immobilized enzyme of Xanthomonas axonopodis M-621-1; type: biochemical; details: ester 45 mg, 7-aminodeacetoxycephalosporanic acid 3 mg, 37° C., 3.5 hours
[8] = test system: immobilized enzyme from Arthrobacter globiformis M-345-2; experiment: Acylating capacity of immobilized enzyme from Arthrobacter globiformis M-345-2; type: biochemical
[9] = test system: purified acylase of Bacillus circulans M-1123-5 immobilized on agar gel; experiment: Acylating capacity of immobilized pure enzyme; type: biochemical
[10] = test system: acylase of Micrococcus luteus M-331-1 (immobilized cells); experiment: CET production with immobilized cells in acrylamide gel; type: biochemical; details: 7-ACA 1 mg/ml
Method: In a solution of acrylamide monomer (750 mg) and N,N'-methylenebisacrylamide (40 mg) in M/20-phosphate buffer (pH 7.0) (4 ml) are suspended said dry cells (1 g). To this solution is added 5% 3-dimethylaminopropionitrile (0.5 ml) and aqueous 1% potassium persulfate (0.5 ml) and the mixture is allowed to stand at 25° C. for 30 minutes. Produced gel is crushed with blender and produced particles over 100 mesh are collected, filled in a 10 mm .phi. tube, and washed with M/20-phosphate buffer (pH 7.0) to give a column (10.2 ml) of immobilized cells.

[11] = test system: acylase of Micrococcus luteus M-331-1 (dried cells); experiment: CET production with dried cells of Micrococcus luteus M-331-1; type: biochemical; details: dried cells 26 mg, 3 hours, 37° C., pH 7.0
Method: The broth is added into an aqueous medium (100 volumes) of the same composition as above, and incubated for 3 days at 28° C.
The broth is neutralized with hydrochloric acid to pH 7, centrifuged to collect the cells, washed with water and dried by washing with acetone to give 1.302 g of dry cells.
The dried cells (26 mg) are suspended in water (1.5 ml), diluted with a solution of 7-ACA (4 mg/ml) and TA-tetraester (20 mg/ml) in M/5-phosphate buffer (pH 7.0) (0.5 ml) and shaken for 3 hours at 37° C. to produce CET at a conversion rate of about 30%. (Immobilized cell entrapted in acrylamide gel)

[12] = test system: acylase of Bacillus circulans M-1123-5 absorbed on Celite 560; experiment: Acylating capacity of absorbed enzyme on Celite 560; type: biochemical
[13] = TA-tetraester 12.5 mg/ml, pH 7.0
[14] = TA-tetraester 18.8 mg/ml, pH 7.0

COCCOCCOCCOCCOCCOC(=O)Cn1cnnn1
product detected and determined, A. globiformis M-345-2 [1]: 43.7
product detected and determined, B. Circulans M-1123-5 [2]: 55.7
product detected and determined, A. fragerum M-2183-1 [3]: 54.9

COCCOCCOCCOCCOC(=O)Cc1cccs1 [TA-tetraester methyl ether]
Conversion rate (%) [4]: 73.3%
7-ACA→CET Conversion rate (%) ([5]; carrier Agar gel): 86.5%
7-ACA→CET Conversion rate (%) ([5]; carrier Sepharose 4B): 86.5%

O=C(Cc1ccccc1)OCCOCCOCCOCCO [drawing 18]
product detected and determined, A. globiformis M-345-2 [1]: 10.1
product detected and determined, B. Circulans M-1123-5 [2]: 36.2
product detected and determined, A. fragerum M-2183-1 [3]: 16.1

O=C(Cc1cccs1)OCCOCCOCCOCCOCCO [TA-pentaester]
Conversion rate (%) [4]: 80.6%
7-ACA→CET Conversion rate (%) ([5]; carrier Sepharose 4B): 69.9%

O=C(Cc1cccs1)OCC(O)CO (stereo not shown) [TA-glycerin ester, 2-thienylacetic acid glycerin ester]
Conversion rate (%) [4]: 73.7%
7-ACA→CET Conversion rate (%) ([5]; carrier Sepharose 4B): 82.0%
produced cephalothin [6]: 34 µg/mL

O=C(Cc1cccs1)OCCOCCOCCOCCOCCOCCOCCOCCO [TA-octaester, 2-thienylacetic acid octaethyleneglycol ester]
Conversion rate (%) [4]: 76.2%
produced cephalothin [6]: 22 µg/mL

COC(=O)Cc1cccs1 [2-thienylacetic acid methyl ester]
solubility (Solubility in water): 10000 µg/mL (≈ 64 mM)

COCCOCCOC(=O)[C@H](N)c1ccccc1 [D-phenylglycin diethyleneglycol ester methyl ether]
conversion rate to cephalexin [7]: 26.3%

COCCOCCOCCOCCOCCOCCOCCOCCOC(=O)Cc1cccs1 [TA-octaester methyl ether]
Conversion rate (%) [4]: 68.2%
Conversion rate ([8]; 7-ACA 1 mg/ml, TA-ester 60, Agar gel): 80.5%
Conversion rate ([8]; 7-ACA 1 mg/ml, TA-ester 114, Agar gel): 76.5%
7-ACA→CET Conversion rate (%) ([5]; carrier Agar gel): 69.8%
7-ACA→CET Conversion rate (%) ([5]; carrier Sepharose 4B): 69.8%
7-ACA→CET Conversion rate (%) ([9]; Elute 39 ml, 7-ACA 10 mg/ml, ester 142.2 mg/ml, 16 ml/hr): 84.8%
7-ACA→CET Conversion rate (%) ([9]; Elute 173 ml): 85.2%
7-ACA→CET Conversion rate (%) ([9]; Elute 306 ml): 85.3%
7-ACA→CET Conversion rate (%) ([9]; Elute 405 ml): 90.4%
7-ACA→CET Conversion rate (%) ([9]; Elute 731 ml): 85.7%
7-ACA→CET Conversion rate (%) ([9]; Elute 782 ml): 86.3%
7-ACA→CET Conversion rate (%) ([9]; Elute 917 ml): 88.5%
7-ACA→CET Conversion rate (%) ([9]; Elute 1089 ml): 86.9%
7-ACA→CET Conversion rate (%) ([9]; Elute 1156 ml): 86.6%
7-ACA→CET Conversion rate (%) ([9]; Elute 1294 ml): 82.5%
7-ACA→CET Conversion rate (%) ([9]; Elute 1432 ml): 83.1%
7-ACA→CET Conversion rate (%) ([9]; Elute 1534 ml): 82.0%

O=C(Cc1cccs1)OCCOCCOCCOCCO [TA-tetraester, 2-thienylacetic acid tetraethyleneglycol ester]
Conversion rate (%) [4]: 77.1%
Conversion rate ([8]; 7-ACA 1 mg/ml, TA-ester 114, Sephalose 4B): 78.5%
Conversion rate ([8]; 7-ACA 1 mg/ml, TA-ester 120, Sephalose 4B): 83.7%
Conversion rate ([8]; 7-ACA 2 mg/ml, TA-ester 120, Sephalose 4B): 71.0%
Conversion rate ([8]; 7-ACA 3 mg/ml, TA-ester 120, Sephalose 4B): 56.3%
7-ACA→CET Conversion rate (%) ([5]; carrier Agar gel): 85.0%
7-ACA→CET Conversion rate (%) ([5]; carrier Sepharose 4B): 87.6%
conversion rate (CET in eluate) ([10]; TA-tetraester 6 mg/ml): 28.6 to 32.5%
conversion rate (CET in eluate) ([10]; TA-tetraester 30 mg/ml): 31.2 to 34.1%
conversion rate (CET produced) [11]: about 30%
produced cephalothin [6]: 26 µg/mL
7-ACA→CET Conversion rate (%) In eluate [12, 13]: 63.0%
7-ACA→CET Conversion rate (%) Isolated Na salt [12, 13]: 53.0%
7-ACA→CET Conversion rate (%) In eluate [12, 14]: 63.0%
7-ACA→CET Conversion rate (%) Isolated Na salt [12, 14]: 64.2%
7-ACA→CET Conversion rate (%) In eluate ([12]; TA-tetraester 25 mg/ml, pH 6.0): 62.8%
7-ACA→CET Conversion rate (%) Isolated Na salt ([12]; TA-tetraester 25 mg/ml, pH 6.0): 48.5%
7-ACA→CET Conversion rate (%) In eluate ([12]; TA-tetraester 25 mg/ml, pH 7.0): 72.9%
7-ACA→CET Conversion rate (%) Isolated Na salt ([12]; TA-tetraester 25 mg/ml, pH 7.0): 67.2%
7-ACA→CET Conversion rate (%) In eluate ([12]; TA-tetraester 25 mg/ml, pH 8.0): 71.6%
7-ACA→CET Conversion rate (%) Isolated Na salt ([12]; TA-tetraester 25 mg/ml, pH 8.0): 49.3%

COCCOCCOC(=O)C(N)c1ccccc1 (stereo not shown)
product detected and determined, A. globiformis M-345-2 [1]: 10.6
product detected and determined, B. Circulans M-1123-5 [2]: 29.6

O=C(Cc1ccccc1)OCCOCCOCCOCCO [drawing 20]
product detected and determined, A. globiformis M-345-2 [1]: 18.0
product detected and determined, B. Circulans M-1123-5 [2]: Decomposition with penicillinase
product detected and determined, A. fragerum M-2183-1 [3]: 20.3
